# System: MV-4-11 cells
# Test: Gene expression microarray analysis (Affymetrix PrimeView) and GSEA
# Assay type: cell-based, human
# Set-up: RFU PODN (11730768_x_at) / Fold change /veh PODN (11730768_x_at) / RFU LINC00158 (11744669_a_at) / Fold change /veh LINC00158 (11744669_a_at) / RFU DUSP10 (11751237_a_at) / Fold change /veh DUSP10 (11751237_a_at) / RFU ID3 (11757404_x_at) / Fold change /veh ID3 (11757404_x_at) / RFU PLEKHG5 (11737974_s_at) / Fold change /veh PLEKHG5 (11737974_s_at) / RFU LRRC4B (11730491_at) / Fold change /veh LRRC4B (11730491_at) / RFU GIMAP4 (11747438_a_at) / Fold change /veh GIMAP4 (11747438_a_at) / RFU KRT8 (11758183_x_at) / Fold change /veh KRT8 (11758183_x_at) / RFU CNN1 (11734310_a_at) / Fold change /veh CNN1 (11734310_a_at) / RFU VPS37D (11726825_at) / Fold change /veh VPS37D (11726825_at) / RFU C10orf10 (11716522_x_at) / Fold change /veh C10orf10 (11716522_x_at) / RFU KIR2DL2 /// KIR2DL4 /// KIR2DL5A /// KIR2DL5B /// KIR2DS1 /// KIR2DS2 /// KIR2DS3 /// KIR2DS4 /// KIR3DL3 /// KIR3DL3 /// KIR3DS1 (11738374_at) / Fold change /veh KIR2DL2 /// KIR2DL4 /// KIR2DL5A /// KIR2DL5B /// KIR2DS1 /// KIR2DS2 /// KIR2DS3 /// KIR2DS4 /// KIR3DL3 /// KIR3DL3 /// KIR3DS1 (11738374_at) / RFU C1QL1 (11718748_at) / Fold change /veh C1QL1 (11718748_at) / RFU TMPRSS4 (11747572_a_at) / Fold change /veh TMPRSS4 (11747572_a_at) / RFU HAMP (11756126_x_at) / Fold change /veh HAMP (11756126_x_at) / RFU RNFT2 (11725882_a_at) / Fold change /veh RNFT2 (11725882_a_at) / RFU NR4A2 (11747474_a_at) / Fold change /veh NR4A2 (11747474_a_at) / RFU ABCC12 (11746883_a_at) / Fold change /veh ABCC12 (11746883_a_at) / RFU TMEM136 (11760407_x_at) / Fold change /veh TMEM136 (11760407_x_at) / RFU CLDN22 /// WWC2 (11732394_at) / Fold change /veh CLDN22 /// WWC2 (11732394_at) / RFU HLA-DPB1 (11760878_x_at) / Fold change /veh HLA-DPB1 (11760878_x_at) / RFU SPINT1 (11716480_a_at) / Fold change /veh SPINT1 (11716480_a_at) / RFU GAP43 (11754022_s_at) / Fold change /veh GAP43 (11754022_s_at) / RFU A4GNT (11735810_at) / Fold change /veh A4GNT (11735810_at) / RFU PRB3 (11715151_x_at) / Fold change /veh PRB3 (11715151_x_at) / RFU TUBB4B (11761932_at) / Fold change /veh TUBB4B (11761932_at) / RFU CAPN14 (11732068_a_at) / Fold change /veh CAPN14 (11732068_a_at) / RFU TMCC2 (11721928_a_at) / Fold change /veh TMCC2 (11721928_a_at) / RFU IRGQ (11745062_a_at) / Fold change /veh IRGQ (11745062_a_at) / RFU FAM174B (11720279_a_at) / Fold change /veh FAM174B (11720279_a_at) / RFU TMPRSS4 (11748680_a_at) / Fold change /veh TMPRSS4 (11748680_a_at) / RFU FAM212B (11763350_a_at) / Fold change /veh FAM212B (11763350_a_at) / RFU PLEKHG5 (11743358_a_at) / Fold change /veh PLEKHG5 (11743358_a_at) / RFU ZSCAN30 (11745921_a_at) / Fold change /veh ZSCAN30 (11745921_a_at) / RFU CMKLR1 (11741424_a_at) / Fold change /veh CMKLR1 (11741424_a_at) / RFU LOC101060620 /// MAPK8IP1 (11723275_at) / Fold change /veh LOC101060620 /// MAPK8IP1 (11723275_at) / RFU SPTSSB (11747773_x_at) / Fold change /veh SPTSSB (11747773_x_at) / RFU PRSS12 (11739890_at) / Fold change /veh PRSS12 (11739890_at) / RFU BIN1 (11741810_x_at) / Fold change /veh BIN1 (11741810_x_at) / RFU WNT11 (11732464_a_at) / Fold change /veh WNT11 (11732464_a_at) / RFU C10orf10 (11716521_a_at) / Fold change /veh C10orf10 (11716521_a_at) / RFU C5orf56 (11738089_at) / Fold change /veh C5orf56 (11738089_at) / RFU CYB561 (11721691_x_at) / Fold change /veh CYB561 (11721691_x_at) / RFU ANKRD19P (11752326_a_at) / Fold change /veh ANKRD19P (11752326_a_at) / RFU OR2T12 /// OR2T33 /// OR2T8 (11738714_s_at) / Fold change /veh OR2T12 /// OR2T33 /// OR2T8 (11738714_s_at) / RFU VCAN (11748164_a_at) / Fold change /veh VCAN (11748164_a_at) / RFU JSRP1 (11732532_at) / Fold change /veh JSRP1 (11732532_at) / RFU KRTAP10-11 (11738290_x_at) / Fold change /veh KRTAP10-11 (11738290_x_at) / RFU MYO3A (11730013_a_at) / Fold change /veh MYO3A (11730013_a_at) / RFU EBF3 (11725865_a_at) / Fold change /veh EBF3 (11725865_a_at) / RFU CAMK2N1 (11719241_x_at) / Fold change /veh CAMK2N1 (11719241_x_at) / RFU C5orf56 (11738088_a_at) / Fold change /veh C5orf56 (11738088_a_at) / RFU OLFML3 (11715873_a_at) / Fold change /veh OLFML3 (11715873_a_at) / RFU LOC100653217 /// NTM (11731650_a_at) / Fold change /veh LOC100653217 /// NTM (11731650_a_at) / RFU MAPK11 (11762145_a_at) / Fold change /veh MAPK11 (11762145_a_at) / RFU FIZ1 (11724087_x_at) / Fold change /veh FIZ1 (11724087_x_at) / RFU OASL (11726364_x_at) / Fold change /veh OASL (11726364_x_at) / RFU SOX15 (11748057_x_at) / Fold change /veh SOX15 (11748057_x_at) / RFU CD79A (11719716_a_at) / Fold change /veh CD79A (11719716_a_at) / RFU HIST1H1D (11736915_at) / Fold change /veh HIST1H1D (11736915_at) / RFU CASKIN2 (11723855_a_at) / Fold change /veh CASKIN2 (11723855_a_at) / RFU LOC730098 (11760151_x_at) / Fold change /veh LOC730098 (11760151_x_at) / RFU OR4N2 (11742367_at) / Fold change /veh OR4N2 (11742367_at) / RFU PRRT2 (11749266_a_at) / Fold change /veh PRRT2 (11749266_a_at) / RFU SNX32 (11753110_a_at) / Fold change /veh SNX32 (11753110_a_at) / RFU CDHR5 (11726645_a_at) / Fold change /veh CDHR5 (11726645_a_at) / RFU RCAN1 (11760418_a_at) / Fold change /veh RCAN1 (11760418_a_at) / RFU FAM167A (11723789_a_at) / Fold change /veh FAM167A (11723789_a_at) / RFU FAM26E (11764081_at) / Fold change /veh FAM26E (11764081_at) / RFU ISYNA1 (11749810_s_at) / Fold change /veh ISYNA1 (11749810_s_at) / RFU ACY1 (11761880_at) / Fold change /veh ACY1 (11761880_at) / RFU 11764098_at / Fold change /veh 11764098_at / RFU SAMD14 (11745864_x_at) / Fold change /veh SAMD14 (11745864_x_at) / RFU NPB (11741838_a_at) / Fold change /veh NPB (11741838_a_at) / RFU TMPRSS6 (11731388_a_at) / Fold change /veh TMPRSS6 (11731388_a_at) / RFU KRTAP10-2 (11738614_at) / Fold change /veh KRTAP10-2 (11738614_at) / RFU ARHGAP8 /// PRR5-ARHGAP8 (11727945_x_at) / Fold change /veh ARHGAP8 /// PRR5-ARHGAP8 (11727945_x_at) / RFU KRTAP5-7 /// NADSYN1 (11734609_at) / Fold change /veh KRTAP5-7 /// NADSYN1 (11734609_at) / RFU RASL12 (11751679_a_at) / Fold change /veh RASL12 (11751679_a_at) / RFU CDKN2B (11736163_a_at) / Fold change /veh CDKN2B (11736163_a_at) / RFU PRF1 (11729649_at) / Fold change /veh PRF1 (11729649_at) / RFU, ZNF638 /// ZNF638-IT1 / Fold change vs veh, ZNF638 /// ZNF638-IT1 / RFU, PANK3 / Fold change vs veh, PANK3 / RFU, SH3YL1 / Fold change vs veh, SH3YL1 / RFU, ZEB2 / Fold change vs veh, ZEB2 / RFU, NRIP1 / Fold change vs veh, NRIP1 / RFU, PTTG1IP / Fold change vs veh, PTTG1IP / RFU, CAPN2 / Fold change vs veh, CAPN2 / RFU, MED14 / Fold change vs veh, MED14 / RFU, SNORA58 / Fold change vs veh, SNORA58 / RFU, C1orf63 / Fold change vs veh, C1orf63 / RFU, LRRFIP1 / Fold change vs veh, LRRFIP1 / RFU, NDUFAF7 / Fold change vs veh, NDUFAF7 / RFU, SLC12A2 / Fold change vs veh, SLC12A2 / RFU, IBTK / Fold change vs veh, IBTK / RFU, ESF1 / Fold change vs veh, ESF1 / Fold change vs veh, TMEM50B / RFU, TAOK1 / Fold change vs veh, TAOK1 / RFU, ACBD3 / Fold change vs veh, ACBD3 / RFU, TMA16 / Fold change vs veh, TMA16 / RFU, RWDD3 / Fold change vs veh, RWDD3 / RFU, BCAT1 / Fold change vs veh, BCAT1 / RFU, EDEM3 / Fold change vs veh, EDEM3 / RFU, TMEM33 / Fold change vs veh, TMEM33 / RFU, WDR75 / Fold change vs veh, WDR75 / RFU, AHCTF1 / Fold change vs veh, AHCTF1 / RFU, TFRC / Fold change vs veh, TFRC / RFU, ZDHHC17 / Fold change vs veh, ZDHHC17 / RFU, NOM1 / Fold change vs veh, NOM1 / RFU, ARL8B / Fold change vs veh, ARL8B / RFU, ZBTB11 / Fold change vs veh, ZBTB11 / RFU, TAMM41 / Fold change vs veh, TAMM41 / RFU, KIAA1704 /// LOC100996395 / Fold change vs veh, KIAA1704 /// LOC100996395 / RFU, ING1 / Fold change vs veh, ING1 / RFU, TRMT61B / Fold change vs veh, TRMT61B / RFU, FUBP3 / Fold change vs veh, FUBP3 / RFU, TP53 / Fold change vs veh, TP53 / RFU, TNKS2 / Fold change vs veh, TNKS2 / RFU, ZFP14 / Fold change vs veh, ZFP14 / RFU, ACTR2 / Fold change vs veh, ACTR2 / RFU, PPP3R1 / Fold change vs veh, PPP3R1 / RFU, PIK3R1 / Fold change vs veh, PIK3R1 / RFU, HNRNPA1 / Fold change vs veh, HNRNPA1 / RFU, RNF170 / Fold change vs veh, RNF170 / RFU, ZNF28 / Fold change vs veh, ZNF28 / RFU, RNGTT / Fold change vs veh, RNGTT / RFU, OGT / Fold change vs veh, OGT / RFU, BRD1 / Fold change vs veh, BRD1 / RFU, MARS / Fold change vs veh, MARS / RFU, ZNF655 / Fold change vs veh, ZNF655 / RFU, FAHD1 / Fold change vs veh, FAHD1 / RFU, BDP1 / Fold change vs veh, BDP1 / RFU, LRRCC1 / Fold change vs veh, LRRCC1 / RFU, ARID1A / Fold change vs veh, ARID1A / RFU, ZNF146 / Fold change vs veh, ZNF146 / RFU, ZNF330 / Fold change vs veh, ZNF330 / RFU, GPN3 / Fold change vs veh, GPN3 / RFU, C9orf123 / Fold change vs veh, C9orf123 / RFU, N4BP2L2 / Fold change vs veh, N4BP2L2 / RFU, ARFIP1 / Fold change vs veh, ARFIP1 / RFU, FAM179B / Fold change vs veh, FAM179B / RFU, BCL10 / Fold change vs veh, BCL10 / RFU, UHRF1BP1L / Fold change vs veh, UHRF1BP1L / RFU, BET1 / Fold change vs veh, BET1 / RFU, CNOT2 / Fold change vs veh, CNOT2 / RFU, ZNF268 / Fold change vs veh, ZNF268 / Fold change vs veh, ZNF507 / RFU, DGCR2 / Fold change vs veh, DGCR2 / RFU, WDSUB1 / Fold change vs veh, WDSUB1 / Fold change vs veh, HSP90B1 /// MIR3652 / RFU, ADSS / Fold change vs veh, ADSS / RFU, GK / Fold change vs veh, GK / RFU, ZNF148 / Fold change vs veh, ZNF148 / RFU, TAF9 / Fold change vs veh, TAF9 / RFU, SLC1A5 / Fold change vs veh, SLC1A5 / RFU, SLMO2 / Fold change vs veh, SLMO2 / RFU, ABCC4 / Fold change vs veh, ABCC4 / RFU, LOC101060439 /// RAP1B / Fold change vs veh, LOC101060439 /// RAP1B / RFU, RFX7 / Fold change vs veh, RFX7 / RFU, GTPBP10 / Fold change vs veh, GTPBP10 / RFU, CNEP1R1 / Fold change vs veh, CNEP1R1 / RFU, BIVM-ERCC5 /// ERCC5 / Fold change vs veh, BIVM-ERCC5 /// ERCC5 / RFU, ILF3 / Fold change vs veh, ILF3 / RFU 11762660_at / Fold change /veh 11762660_at / RFU VCAN (11757783_s_at) / Fold change /veh VCAN (11757783_s_at) / RFU DDX43 (11728927_at) / Fold change /veh DDX43 (11728927_at) / RFU KRT8 (11758188_x_at) / Fold change /veh KRT8 (11758188_x_at) / RFU NKD1 (11759106_at) / Fold change /veh NKD1 (11759106_at) / RFU SRD5A1 (11742802_a_at) / Fold change /veh SRD5A1 (11742802_a_at) / RFU TPSAB1 /// TPSB2 (11721975_s_at) / Fold change /veh TPSAB1 /// TPSB2 (11721975_s_at) / RFU GSTM3 (11746129_a_at) / Fold change /veh GSTM3 (11746129_a_at) / RFU IL23R (11737362_x_at) / Fold change /veh IL23R (11737362_x_at) / RFU TMEM51 (11727254_a_at) / Fold change /veh TMEM51 (11727254_a_at) / RFU PIWIL2 (11732686_x_at) / Fold change /veh PIWIL2 (11732686_x_at) / RFU ORM1 (11744905_x_at) / Fold change /veh ORM1 (11744905_x_at) / RFU CCDC152 (11743942_at) / Fold change /veh CCDC152 (11743942_at) / RFU ECM1 (11717891_a_at) / Fold change /veh ECM1 (11717891_a_at) / RFU IL23R (11748794_a_at) / Fold change /veh IL23R (11748794_a_at) / RFU TNFAIP8L3 (11732012_x_at) / Fold change /veh TNFAIP8L3 (11732012_x_at) / RFU MBOAT4 (11741988_at) / Fold change /veh MBOAT4 (11741988_at) / RFU 11764193_at / Fold change /veh 11764193_at / RFU TMEM53 (11763286_at) / Fold change /veh TMEM53 (11763286_at) / RFU MAGEB2 (11727129_at) / Fold change /veh MAGEB2 (11727129_at) / RFU TMEM200A (11744735_a_at) / Fold change /veh TMEM200A (11744735_a_at) / RFU CCDC152 (11751479_a_at) / Fold change /veh CCDC152 (11751479_a_at) / RFU FAM211A (11726209_a_at) / Fold change /veh FAM211A (11726209_a_at) / RFU RGS16 (11746705_a_at) / Fold change /veh RGS16 (11746705_a_at) / RFU VCAN (11755009_s_at) / Fold change /veh VCAN (11755009_s_at) / RFU RHOB (11743442_s_at) / Fold change /veh RHOB (11743442_s_at) / RFU RGS16 (11720943_a_at) / Fold change /veh RGS16 (11720943_a_at) / RFU RGS16 (11720944_at) / Fold change /veh RGS16 (11720944_at) / RFU, VPS4B / Fold change vs veh, VPS4B / RFU, CREB1 / Fold change vs veh, CREB1 / RFU, DNAJC13 / Fold change vs veh, DNAJC13 / RFU, GNAQ / Fold change vs veh, GNAQ / RFU, CDK5R1 / Fold change vs veh, CDK5R1 / RFU, ZRANB3 / Fold change vs veh, ZRANB3 / RFU, CUL4A / Fold change vs veh, CUL4A / RFU, CCNY / Fold change vs veh, CCNY / RFU, UFL1 / Fold change vs veh, UFL1 / RFU, COG3 / Fold change vs veh, COG3 / RFU, DIAPH2 / Fold change vs veh, DIAPH2 / RFU, SKA2 / Fold change vs veh, SKA2 / RFU, AFF3 / Fold change vs veh, AFF3 / RFU, LMF1 / Fold change vs veh, LMF1 / RFU, IPO11 / Fold change vs veh, IPO11 / RFU, DFFB / Fold change vs veh, DFFB / RFU, FOXP1 / Fold change vs veh, FOXP1 / RFU, CARD8 / Fold change vs veh, CARD8 / RFU, STRN3 / Fold change vs veh, STRN3 / RFU, ADK / Fold change vs veh, ADK / RFU, RASSF2 / Fold change vs veh, RASSF2 / RFU, WIPF1 / Fold change vs veh, WIPF1 / RFU, LARP1B / Fold change vs veh, LARP1B / RFU, RASA1 / Fold change vs veh, RASA1 / RFU, RB1 / Fold change vs veh, RB1 / RFU, PPFIA1 / Fold change vs veh, PPFIA1 / RFU, MAT2A / Fold change vs veh, MAT2A / RFU, CCT5 / Fold change vs veh, CCT5 / RFU, WDR92 / Fold change vs veh, WDR92 / RFU, CUX1 / Fold change vs veh, CUX1 / RFU, TTC7A / Fold change vs veh, TTC7A / RFU, TMEM135 / Fold change vs veh, TMEM135 / RFU, DEPTOR / Fold change vs veh, DEPTOR / RFU, CPM / Fold change vs veh, CPM / RFU, DNAJB6 / Fold change vs veh, DNAJB6 / RFU, CACNA2D3 / Fold change vs veh, CACNA2D3 / RFU, DTX4 / Fold change vs veh, DTX4 / RFU, TFCP2 / Fold change vs veh, TFCP2 / RFU, GMCL1 /// GMCL1P1 / Fold change vs veh, GMCL1 /// GMCL1P1 / RFU, AEBP2 / Fold change vs veh, AEBP2 / RFU, SNHG1 /// SNORD22 /// SNORD25 /// SNORD26 /// SNORD27 /// SNORD28 /// SNORD29 /// SNORD31 / Fold change vs veh, SNHG1 /// SNORD22 /// SNORD25 /// SNORD26 /// SNORD27 /// SNORD28 /// SNORD29 /// SNORD31 / Fold change (Aza/veh), C12orf56 (ProbeSet 11735607_a_at) / Fold change (ACY-1035/veh), C12orf56 (ProbeSet 11735607_a_at) / Fold change (Aza/veh), FGFR1OP (ProbeSet 11751329_s_at) / Fold change (ACY-1035/veh), FGFR1OP (ProbeSet 11751329_s_at) / Fold change (Aza/veh), VPS36 (ProbeSet 11739960_a_at) / Fold change (ACY-1035/veh), VPS36 (ProbeSet 11739960_a_at) / RFU SYPL1 (11715823_x_at) / Fold change /veh SYPL1 (11715823_x_at) / RFU IGFBP7 (11715501_s_at) / Fold change /veh IGFBP7 (11715501_s_at) / RFU REEP3 (11722064_at) / Fold change /veh REEP3 (11722064_at) / RFU IGLL1 (11728026_x_at) / Fold change /veh IGLL1 (11728026_x_at): dose or concentration left out as unconfirmed
# Settings: ProbeSet 11753623_s_at; LIST D
structure (smiles),measurement,value
Nc1ncn([C@@H]2O[C@H](CO)[C@@H](O)[C@H]2O)c(=O)n1 [azacitidine],"RFU, LOC101060439 /// RAP1B",283.36 RFU
